Measured values as given in patent US20250281929A1, “MICROFLUIDIC DEVICE AND USES THEREOF” (CASE WESTERN RESERVE UNIVERSITY, priority 2020, published 2025).

Tests used:
RBC = assay: MIRCA functional assay of RBC deformability, quantitative microcapillary occlusion (Occlusion Index); format: cell-based, human; conditions: people with variant SCD (HbSC) and SCA (HbSS)
Excerpt: Abnormal RBC deformability contributes to the underlying pathophysiology of SCD, and we tested this in variant SCD and sickle cell trait (SCT). We have developed MIRCA, a novel functional assay of RBC deformability, assessed by quantitative microcapillary occlusion (‘Occlusion Index, OI’, FIG. 18). This in vitro test recapitulates key geometric features of the capillary bed: >80,000 narrow openings and side anastomoses ‘on-a-chip’, under normoxia or hypoxia (FIG. 18).

healthy RBCs = assay: microfluidic assay of RBC mediated microvascular occlusion (micropillar arrays with integrated electrical impedance measurement); format: cell-based, human; conditions: RBCs stiffened with 0.08% w/v glutaraldehyde 10 min, 20% hematocrit, mean±SD, N=4; for RBC Electrical Impedance Index (REI): impedance at 10 kHz
Experimental: In order to validate the microfluidic device functionality of assessing RBC mediated microvascular occlusion, healthy RBCs were isolated and treated with 0.08% w/v glutaraldehyde (Sigma Aldrich) for 10 min at room temperature. The glutaraldehyde-stiffened RBCs were then washed with PBS, mixed with untreated healthy RBCs from the same donor at either 1% or 2% v/v ratio, and re-suspended in PBS at 20% hematocrit for testing. Healthy RBCs from the same healthy donor were included in the study design as control.
Microchannels were initially washed with absolute ethanol (100%) and PBS, which was followed by incubation with 2% bovine serum albumin (BSA) overnight to prevent non-specific binding of RBCs to the channel walls. A Flow-EZ™ microfluidic flow control system (Fluigent, Lowell, MA) was used to regulate the flow (FIG. 12). An impedance analyzer (Agilent 4294A, Santa Clara, CA) coupled with a custom printed-circuit board was used to perform electrical impedance measurements. Briefly, impedance magnitude across each of the 3-μm to 10-μm micropillar arrays was recorded over the frequency range of 40 Hz-1 MHz before introducing blood into the microchannel and after completing the washing step. […]
Prior to the experiment, PBS was perfused through the microchannel at 100 mBar for 15 min to allow for any volumetric changes of the microchannel. Thereafter, the baseline impedance reading was obtained for each micropillar array without stopping the PBS flow. […] A second impedance reading was then obtained for each micropillar array upon the conclusion of the post-perfusion wash step. […] For select experiments, the electrical impedance of the 3-μm micropillar array was continuously monitored over the entire duration of the experiment.
To determine the association between the electrical impedance change and microcapillary occlusion in the microchannel, an Olympus IX83 inverted motorized microscope with Olympus CellSense live-cell imaging and analysis software were used to obtain high-resolution microscopic images. The images were further processed by Adobe Photoshop software (San Jose, CA), in which the obstructed microcapillaries were manually counted. […]
[formula] [formula] • where, • n=Total number of capillary networks within the area of interest • i=The i^th capillary network within the area of interest • Oi; =The number of microcapillary occlusion in the i^th capillary network • Ni=Total number of microcapillaries in the i^th capillary network • Ii1=The first electrical impedance reading of the i^th capillary network • Ii2=The second electrical impedance reading of the i^th capillary network […]

[1] = sample 98% healthy RBCs and 2% stiff RBCs
[2] = sample 99% healthy RBCs and 1% stiff RBCs

SMILES	association of RBC Occlusion Index (OI) with drug use (RBC)	RBC Electrical Impedance Index (REI) (healthy RBCs; [1]) [%]	RBC Occlusion Index (ROI) (healthy RBCs; [1]) [%]	RBC Electrical Impedance Index (REI) (healthy RBCs; [2]) [%]	RBC Occlusion Index (ROI) (healthy RBCs; [2]) [%]
NC(=O)NO [hydroxyurea]	inversely associated				
O=CCCCC=O [glutaraldehyde]		20.99	36.16	9.40	17.15
